Reference: paper PMC6987128, “Target protein-oriented isolation of Hes1 dimer inhibitors using protein based methods” (Scientific Reports, 2020)
Read-outs that look alike come from different tables or passages of the source. Blank lines part the entries; values can stand above or below the compound they belong to.

Legend:
[1] = target: T1, Hes1 dimer formation (Hes1-Hes1 interaction) (Rattus norvegicus, UniProt Q04666); experiment: Hes1-Hes1 interaction fluorescent plate assay (Hes1 dimer formation inhibition); format: binding; settings: for remaining activity at 5 µM: 5 μM compound; for remaining activity at 100 µM: 100 μM compound
T1 construct: Glutathione-S-transferase (GST) fused rat Hes1(3–281) protein was expressed in Escherichia coli; GST (N, cleaved yes); GST (N); made in house; host or cells: Escherichia coli JM109 (pGEX-ratHes1 3-281)
T1 sequence (Q04666 3-281): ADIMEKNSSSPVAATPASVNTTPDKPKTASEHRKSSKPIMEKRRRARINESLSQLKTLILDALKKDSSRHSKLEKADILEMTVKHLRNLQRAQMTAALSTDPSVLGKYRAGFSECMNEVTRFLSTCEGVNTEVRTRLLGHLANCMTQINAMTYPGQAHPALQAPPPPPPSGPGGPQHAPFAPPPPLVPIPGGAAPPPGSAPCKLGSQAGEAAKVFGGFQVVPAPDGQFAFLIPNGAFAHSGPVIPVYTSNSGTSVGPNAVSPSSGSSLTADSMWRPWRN
Source text: It is essential to inhibit undesired PPIs in drug development, and bioactivity-guided isolation using the inhibitory activity of PPIs is an attractive method to obtain effective inhibitors. However, currently there are only a few examples of such approaches using PPI assay systems[22],[23]. We previously developed a Hes1-Hes1 interaction fluorescent plate assay and reported the screening results of our natural products compound library (Fig. 2A)[24]. Glutathione-S-transferase (GST) fused rat Hes1(3–281) protein was expressed in Escherichia coli and purified rat Hes1 protein was immobilized on the bottom of 96 well plates. We prevented GST-GST interactions, which would result in false positives, by preparing GST-free Hes1 protein by GST cleavage with Turbo3C protease. After labeling Hes1 with Cy3, this florescent Hes1 protein was added to the wells of the above plate and incubated for 24 h at 4 °C. Hes1-Hes1 interaction was successfully detected as Cy3 fluorescence intensity. Using this assay system, we screened our 118 plant extract library and identified the MeOH extract of Psidium guajava leaves to contain naturally occurring compounds that inhibit Hes1 dimer formation. The MeOH extract (29.9 g) was fractionated using Diaion HP-20 with a MeOH-acetone solvent system to afford fractions 1A to 1C. Active fraction 1A (27.2 g) was suspended in 10% aq. MeOH and partitioned with hexane, EtOAc and BuOH to obtain hexane (1.1 g), EtOAc (5.7 g), BuOH (4.7 g) and aqueous (18.9 g) soluble fractions. Part of the active BuOH soluble fraction was subjected to ODS column chromatography and reverse-phase HPLC. Activity-guided separation yielded ten compounds (1–10; Fig. 3). The isolated compounds were identified as morin (1)[25], isoquercitrin (2)[26], methyl gallate (3)[27], (+)-catechin (4)[28],[29], dihydrophaseic acid (5)[30], quercetin (6)[26],[31], avicularin (7)[32],[33], gallic acid (8)[34], protocatechuic acid (9)[35] and 4-hydroxybenzoic acid (10)[36] based on comparisons of their spectral data with spectra in the literature.
Hes1-bound microplate wells[24] (Nunc Immobilizer^TM Amino Plate, Thermo) were incubated with 50 μL of Cy3-labeled-Hes1 in NET-N buffer (NET buffer (20 mM Tris-HCl, pH 7.5, 200 mM NaCl, 1 mM EDTA) containing 0.05% Nonidet® P-40, ca. 7 mg/L, dye/protein = 0.4) for 24 h at 4 °C. After removing the protein solution, the wells were washed twice with 200 μL of PBST, then each compound solution (in NET-N buffer, 50 μL) was added and the plates were incubated for 1 h at RT in the dark. The wells were washed twice with 200 μL of PBST, then dried under reduced pressure for 1 h in the dark. The Cy3 dye was excited at 544 nm and emission was monitored at 590 nm using a microplate reader (Fluoroskan Ascent, Thermo Labsystems, Vantaa, Finland). The assays were typically carried out in three individual wells, and the mean value and SD were calculated. The equilibrium between dimer formation between Cy3-Hes1/Cy3-Hes1 (in solution) and Cy3-Hes1/immobilized-Hes1 allowed the detection of Cy3-Hes1/immobilized-Hes1.
Typical procedure; Nunc Immobilizer^TM Amino 96 well Plate, white (Nalge Nunc Int., NY, USA) was used for immobilizing of Hes1. The micro plate wells were incubated with 100 µl of Hes1 (10 µg/mL in PBS) 2 h at 4 °C. After removing protein solution, the wells were incubated for 2 h at 4 °C with 100 µL of 10 mM ethanolamine (in 100 mM Na2CO3 buffer, pH 9.6) to block remaining activated units on the well. Then, wells were washed twice with 200 µL of PBST (PBS containing 0.05% Tween 20).
The Cy3 dye reagent was prepared as 1 vial of Cy3 monofunctional dye reagent (succinimidylester type; GE Healthcare, Buckinghamshire, UK) in DMSO (50 µL) and stored at -20 °C. Cy3-labeled Hes1 was prepared by mixing of protein in PBS with Cy3 dye reagent in DMSO (typically 0.6 µL of DMSO solution to 1 mL of 10 mg/L protein solution in PBS) for 30 min at 4 °C in the dark. […]

[2] = tested on: NSCs; settings: cited from earlier work
[3] = tested on: C17.2 mouse neural stem cells; experiment: Neural stem cell differentiation assay (Tuj1/GFAP immunofluorescence staining); format: cell-based; settings: C17.2 cells, 6 days, positive control
Source text: We recently developed another protein-based screening method, the target protein oriented natural products isolation method (TPO-NAPI) using protein beads (Fig. 2B). Agalloside, inohanamine, α-mangostine, BE-14106, isomicromonolactam, staurosporin and linarin were isolated as Hes1 binding compounds using the TPO-NAPI method[15],[17]. Rat Hes1 (1–95) containing basic and helix-loop-helix domains was immobilized because the helix-loop-helix domain is known to be important for Hes1-Hes1 interaction; therefore, utilizing this domain in the beads method would likely be effective for screening Hes1 dimer inhibitors. GST-Hes1 immobilized beads were prepared by mixing freshly prepared GST-Hes1 protein with glutathione Sepharose 4B beads. GST-only beads were prepared as a control. After incubating the beads with plant MeOH extracts at 4 °C for 2 h, bound compounds were eluted by adding EtOH and heating at 100 °C for 3 min, then the eluted compounds were analyzed by HPLC. […] The MeOH extract (64.6 g) of Terminalia chebula bark was partitioned with hexane, EtOAc and BuOH to obtain hexane (1.5 g), EtOAc (3.6 g), BuOH (42.6 g), and aqueous (20.5 g) soluble fractions. The EtOAc fraction contained the target peak and was subjected to silica gel column chromatography to give eight fractions (1A-H). Fraction 1D contained the target peak and was separated by ODS column chromatography and reverse-phase HPLC to give compound 11 (0.4 mg). Compound 11 was identified as 4-O-(4″-O-galloyl-α-L-rhamnopyranosyl)ellagic acid by comparison of its NMR data with reported spectral data[37]. […] This is the strongest Hes1 dimer inhibitor reported to date. The ability of 11 to accelerate the differentiation of C17.2 mouse neural stem cells was evaluated (Fig. 5). C17.2 cells (2 × 10^5 cells/mL) were seeded in a poly-L-lysine-coated 24 well plates and incubated for 24 h, then the cells were treated with DMSO (control), 100 μM valproic acid (VPA), 5 μM retinoic acid (RA) (positive controls) or 11 (1 or 5 μM) for 6 days. A confocal microscope was used to obtain images of differentiated neural cells after immunostaining class III β-tubulin (Tuj1) in neurons, and glial fibrillary acidic protein (GFAP) in astrocytes and nuclei (TO-PRO-3). […] In contrast, the control dish containing cells treated with DMSO contained small number of neurons.
C17.2 cells were cultured in proliferation medium [DMEM (DS Pharma Biomedical Co., Ltd. Osaka, Japan) supplemented with 10% fetal bovine serum (Biowest, Nuaillé, France), 5% horse serum (Gibco, Life Technologies, Tokyo, Japan)]. Neural differentiation of C17.2 cells was initiated by transferring the cells to differentiation medium [Neurobasal Medium (Gibco) supplemented with 2% B-27 without vitamin A (Gibco), 1% antibiotic-antimycotic (Gibco)]. All cultures were maintained in a humidified incubator at 37 °C in 5% CO2/95% air.
C17.2 cells were dissociated using the proliferation medium 2 × 10^5 cells/mL on cover glass (MATSUNAMI GLASS) coated with poly-L-lysine and fibronectin/laminin. After incubation for 24 h, cells were washed with D-MEM and treated with individual compounds in differentiation medium for 6 days.
C17.2 cells were fixed with 4% paraformaldehyde in PBS for 20 min at room temperature (r.t.) and washed with 1% BSA in PBS three times. After blocking with 10% BSA in 0.3% Triton X-100 in PBS for 45 min at r.t., fixed cells were incubated with primary antibodies (anti-βIII-Tubulin; Neuronal Class III, Mouse-Mono, 1:400, R&D Systems^TM; anti-GFAP, 1:400, VERITAS) for 12 h at 4 °C. After washing three times with 1% BSA in PBS (500 μL/well), cells were incubated with secondary antibodies (Alexa Fluor® 488 goat anti-mouse IgG (H + L), 1:400, Life Technologies; Alexa Fluor® 555 goat ant-rabbit IgG (H + L), 1:200, Life Technologies) for 1 hr at r.t. in the dark. […]

[4] = 24 h, read-out: Hes1 dimer formation rate (%)
[5] = Cy3-labeled Hes1 / immobilized Hes1, compound 1 h at RT, read-out: Hes1 dimer formation inhibitory activity IC50
[6] = 24 h, 0 μM = 100, read-out: Hes1 dimer formation rate (%)
[7] = 24 h, 25 μM compound, 0 μM = 100, read-out: Hes1 dimer formation rate (%)
[8] = 24 h, 50 μM compound, 0 μM = 100, read-out: Hes1 dimer formation rate (%)
[9] = Hes1 dimer formation inhibitory activity IC50, Cy3-labeled Hes1 / immobilized Hes1, compound 1 h at RT
[10] = 24 h, 10 μM compound, 0 μM = 100, read-out: Hes1 dimer formation rate (%)

Compound: O=C(O)c1ccc(O)c(O)c1 [Compound 9, protocatechuic acid]
remaining activity at 10 µM [1, 4]: 61.7%
remaining activity at 25 µM [1, 4]: 49.3%
remaining activity at 50 µM [1, 4]: 44.9%
IC50 [1, 5]: 23.8 µM

remaining activity at 5 µM [1, 6]: 74.6%
remaining activity at 25 µM [1, 7]: 51.3%
remaining activity at 50 µM [1, 8]: 23.8%
IC50 [1, 5]: 26.5 µM
Compound: O=c1c(O[C@@H]2O[C@@H](CO)[C@H](O)[C@H]2O)c(-c2ccc(O)c(O)c2)oc2cc(O)cc(O)c12 [Compound 7, avicularin]

Compound: CCCC(=O)/C=C/C1=C(O)C(=O)c2cc(O)c(O)cc2C1=O [Lindbladione]
differentiation of NSCs to neurons [2]: accelerated the differentiation of NSCs to neurons

Compound: CCCC(CCC)C(=O)O [VPA, valproic acid, reference compound]
number of neurons ([3]; 100 μM): increased

Compound: O=C(O)c1cc(O)c(O)c(O)c1 [Commercially available gallic acid, gallic acid, reference compound]
IC50 [1, 9]: 8.9 µM

Compound: O=c1c(O[C@@H]2O[C@H](CO)[C@@H](O)[C@H](O)[C@H]2O)c(-c2ccc(O)c(O)c2)oc2cc(O)cc(O)c12 [Compound 2, isoquercitrin]
remaining activity at 20 µM ([1]; 24 h, 20 μM compound, 0 μM = 100, read-out: Hes1 dimer formation rate (%)): 67.2%
remaining activity at 60 µM ([1]; 24 h, 60 μM compound, 0 μM = 100, read-out: Hes1 dimer formation rate (%)): 34.5%
remaining activity at 80 µM ([1]; 24 h, 80 μM compound, 0 μM = 100, read-out: Hes1 dimer formation rate (%)): 28.3%
IC50 [1, 5]: 35.7 µM

Compound: CC1=C(/C=C/C(C)=C/C=C/C(C)=C/C(=O)O)C(C)(C)CCC1 [RA, retinoic acid, reference compound]
number of neurons ([3]; 5 μM): increased

Compound: O=c1c(O)c(-c2ccc(O)c(O)c2)oc2cc(O)cc(O)c12 [Compound 6, quercetin]
remaining activity at 30 µM ([1]; 24 h, 30 μM compound, 0 μM = 100, read-out: Hes1 dimer formation rate (%)): 82.5%
remaining activity at 40 µM ([1]; 24 h, 40 μM compound, 0 μM = 100, read-out: Hes1 dimer formation rate (%)): 66.5%
remaining activity at 50 µM [1, 8]: 35.7%
IC50 [1, 5]: 45.1 µM

Compound: isomicromonolactam
differentiation of NSCs to neurons [2]: accelerated the differentiation of NSCs to neurons

remaining activity at 25 µM [1, 7]: 95.4%
remaining activity at 50 µM [1, 8]: 79.2%
remaining activity at 100 µM [1, 6]: 78.8%
Compound: Oc1cc(O)c2c(c1)O[C@H](c1ccc(O)c(O)c1)[C@@H](O)C2 [Compound 4, (+)-catechin]

remaining activity at 25 µM [1, 7]: 125%
remaining activity at 50 µM [1, 8]: 122%
remaining activity at 100 µM [1, 6]: 127%
Compound: CC(C=CC1(O)C2(C)COC1(C)CC(O)C2)=CC(=O)O (stereo not shown) [Compound 5, dihydrophaseic acid]

remaining activity at 25 µM [1, 7]: 58.8%
remaining activity at 50 µM [1, 8]: 50.4%
remaining activity at 100 µM [1, 6]: 39.8%
IC50 [1, 5]: 51.2 µM
Compound: O=C(O)c1ccc(O)cc1 [Compound 10, 4-hydroxybenzoic acid]

Compound: O=C(O)c1cc(O)c(O)c(O)c1 [Compound 8, gallic acid]
remaining activity at 5 µM [1, 6]: 53.9%
remaining activity at 10 µM [1, 10]: 50.7%
remaining activity at 25 µM [1, 7]: 26.2%
IC50 [1, 9]: 10.3 µM

remaining activity at 5 µM [1, 6]: 89.7%
remaining activity at 25 µM [1, 7]: 79.2%
remaining activity at 50 µM [1, 8]: 37.8%
IC50 [1, 5]: 40.8 µM
Compound: O=c1c(O)c(-c2ccc(O)cc2O)oc2cc(O)cc(O)c12 [Compound 1, morin]

remaining activity at 5 µM [1, 6]: 68.4%
remaining activity at 10 µM [1, 10]: 54.3%
remaining activity at 25 µM [1, 7]: 39.2%
IC50 [1, 5]: 12.7 µM
Compound: COC(=O)c1cc(O)c(O)c(O)c1 [Compound 3, methyl gallate]
